≈ marks a conversion by molar mass, not a printed value. Calls of active or inactive are those of the source. No cut-off for these calls is given here.
Legend:
[1] = Toxicity in albino mouse assessed as mortality at 150 mg/kg, iv; format: organism-based; set-up: dose 150 mg/kg, route intravenous; settings: in vivo
[2] = Toxicity in albino mouse assessed as mortality at 45 mg/kg, iv; format: organism-based; set-up: dose 45 mg/kg, route intravenous; settings: in vivo
Streptococcus pneumoniae [3] = experiment: Antibacterial activity against clinical isolates of Streptococcus pneumoniae PGI/DML02468 after overnight incubation by microdilution broth assay; format: functional
[4] = Toxicity in albino mouse assessed as mortality at 5 mg/kg, iv; format: organism-based; set-up: dose 5 mg/kg, route intravenous; settings: in vivo
Pseudomonas aeruginosa [5] = experiment: Antibacterial activity against clinical isolates of Pseudomonas aeruginosa PGI/DML02084 after overnight incubation by microdilution broth assay; format: functional
Escherichia coli [6] = experiment: Bactericidal activity against clinical isolates of Escherichia coli PGI/DML02292 assessed as disruption of cell structure at 4 times MIC after 30 mins by transmission electron microscopy relative to control; format: functional, organism-based
[7] = Toxicity in albino mouse assessed as mortality at 60 mg/kg, iv; format: organism-based; set-up: dose 60 mg/kg, route intravenous; settings: in vivo
Escherichia coli [8] = experiment: Binding affinity to Escherichia coli PGI/DML02292 DNA at 12 ug/ml after 1 hr by agarose gel electrophoresis
Streptococcus pneumoniae [9] = experiment: Antibacterial activity against clinical isolates of erythromycin-resistant Streptococcus pneumoniae PGI/DML02213 after overnight incubation by microdilution broth assay; format: functional
Escherichia coli [10] = experiment: Induction of membrane damage in Escherichia coli PGI/DML02292 at 6 ug/ml after 30 mins by propidium iodide staining-based flow cytometry relative to control; format: functional
[11] = Cytotoxicity against human HaCaT cells assessed as cell viability at 100 ug/ml after 18 hrs by MTT assay; format: cell-based; settings: read-out: Activity
[12] = (§1) Toxicity in iv dosed albino mouse; format: organism-based; settings: in vivo
Mus musculus [13] = experiment: as §1; format: organism-based; settings: in vivo
Escherichia coli [14] = experiment: Antibacterial activity against Escherichia coli PGI/DML02292 infected in Swiss albino mouse assessed as log reduction at 5 mg/kg administered twice at 1 hr and 5 hrs post infection relative to control; format: functional
Enterococcus faecium [15] = experiment: Antibacterial activity against clinical isolates of Enterococcus faecium GMCH/B0102 after overnight incubation by microdilution broth assay; format: functional
Enterococcus faecium [16] = experiment: Antibacterial activity against clinical isolates of penicillin-resistant Enterococcus faecium GMCH/R-Pen003 after overnight incubation by microdilution broth assay; format: functional
Mus musculus [17] = experiment: Toxicity in albino mouse assessed as mortality latency at 120 mg/kg, iv; format: organism-based; set-up: dose 120 mg/kg, route intravenous; settings: in vivo
Escherichia coli [18] = experiment: Antibacterial activity against Escherichia coli PGI/DML02292 infected in Swiss albino mouse assessed as log reduction at 3 mg/kg administered twice at 1 hr and 5 hrs post infection relative to control; format: functional
Mus musculus [19] = experiment: Toxicity in albino mouse assessed as mortality latency at 90 mg/kg, iv; format: organism-based; set-up: dose 90 mg/kg, route intravenous; settings: in vivo
Staphylococcus aureus [20] = experiment: Antibacterial activity against Staphylococcus aureus PGI/DML03149 infected in Swiss albino mouse assessed as log reduction at 10 mg/kg administered […] at 1 hr post infection relative to control; format: functional
Escherichia coli [21] = experiment: Antibacterial activity against Escherichia coli PGI/DML02292 infected in Swiss albino mouse assessed as log reduction at 10 mg/kg administered at 1 hr post infection relative to control; format: functional
[22] = Membrane permeabilization activity assessed as release of calcein from liposomes at 1:50 lipopeptide:lipid molar ratio after 5 mins by fluorescence assay
[23] = Cytotoxicity against human HaCaT cells assessed as cell viability at 500 ug/ml after 18 hrs by MTT assay; format: cell-based; settings: read-out: Activity
Mus musculus [24] = experiment: Toxicity in albino mouse assessed as mortality latency at 45 mg/kg, iv; format: organism-based; set-up: dose 45 mg/kg, route intravenous; settings: in vivo
Escherichia coli [25] = experiment: Bactericidal activity against clinical isolates of Escherichia coli PGI/DML02292 assessed as surface blebs at 4 times MIC after 30 mins by […] microscopy relative to control; format: functional, organism-based
Escherichia coli [26] = experiment: Induction of membrane damage in Escherichia coli PGI/DML02292 at 9 ug/ml after 30 mins by propidium iodide staining-based flow cytometry relative to control; format: functional
[27] = Toxicity in albino mouse assessed as mortality at 75 mg/kg, iv; format: organism-based; set-up: dose 75 mg/kg, route intravenous; settings: in vivo
Mus musculus [28] = experiment: Toxicity in albino mouse assessed as piloerection at 75 mg/kg, iv measured for 14 days; format: organism-based; set-up: dose 75 mg/kg, route intravenous; settings: in vivo, 336 h
Pseudomonas aeruginosa [29] = experiment: Antibacterial activity against clinical isolates of streptomycin-resistant Pseudomonas aeruginosa PGI/DML01991 after overnight incubation by microdilution broth assay; format: functional
Enterococcus faecalis = experiment: Antibacterial activity against clinical isolates of gentamicin-resistant Enterococcus faecalis GMCH/R-Gen011 after overnight incubation by microdilution broth assay; format: functional
Staphylococcus aureus [30] = experiment: Antibacterial activity against clinical isolates of Staphylococcus aureus PGI/DML03054 after overnight incubation by microdilution broth assay; format: functional
Klebsiella pneumoniae [31] = experiment: Antibacterial activity against clinical isolates of Klebsiella pneumoniae GMCH/B0127 after overnight incubation by microdilution broth assay; format: functional
Escherichia coli [32] = experiment: Induction of membrane damage in Escherichia coli PGI/DML02292 at 3 ug/ml after 30 mins by propidium iodide staining-based flow cytometry relative to control; format: functional
Klebsiella pneumoniae [33] = experiment: Antibacterial activity against clinical isolates of kanamycin-resistant Klebsiella pneumoniae GMCH/R-Kan006 after overnight incubation by microdilution broth assay; format: functional
Haemophilus influenzae = experiment: Antibacterial activity against clinical isolates of Haemophilus influenzae PGI/DML01751 after overnight incubation by microdilution broth assay; format: functional
[34] = Toxicity in albino mouse assessed as mortality at 30 mg/kg, iv; format: organism-based; set-up: dose 30 mg/kg, route intravenous; settings: in vivo
Acinetobacter baumannii [35] = experiment: Antibacterial activity against clinical isolates of imipenem-resistant Acinetobacter baumannii GMCH/R-Imi003 after overnight incubation by microdilution broth assay; format: functional
[36] = Toxicity in albino mouse assessed as mortality at 1 mg/kg, iv; format: organism-based; set-up: dose 1 mg/kg, route intravenous; settings: in vivo
Mus musculus [37] = experiment: Toxicity in albino mouse assessed as mortality latency at 60 mg/kg, iv; format: organism-based; set-up: dose 60 mg/kg, route intravenous; settings: in vivo
Mus musculus [38] = experiment: Toxicity in albino mouse assessed as mortality latency at 75 mg/kg, iv; format: organism-based; set-up: dose 75 mg/kg, route intravenous; settings: in vivo
Acinetobacter baumannii [39] = experiment: Antibacterial activity against clinical isolates of Acinetobacter baumannii GMCH/B0083 after overnight incubation by microdilution broth assay; format: functional
Plasma = experiment: Drug degradation in human plasma at 1 ug/ml after 24 hrs by RP-HPLC analysis; format: ADME, cell-free
Mus musculus [40] = experiment: Toxicity in albino mouse assessed as anorexia at 45 to 150 mg/kg, iv measured for 14 days; format: organism-based; set-up: dose 45-150 mg/kg, route intravenous; settings: in vivo, 336 h
Escherichia coli [41] = experiment: Antibacterial activity against Escherichia coli PGI/DML02292 infected in Swiss albino mouse assessed as log reduction at 1 mg/kg administered twice at 1 hr and 5 hrs post infection relative to control; format: functional
Mus musculus [42] = experiment: Toxicity in albino mouse assessed as syncope at 90 to 150 mg/kg, iv measured for 14 days; format: organism-based; set-up: dose 90-150 mg/kg, route intravenous; settings: in vivo, 336 h
[43] = test system: Staphylococcus epidermidis; experiment: Antibacterial activity against clinical isolates of ampicillin-resistant Staphylococcus epidermidis GMCH/R-Amp008 after overnight incubation by microdilution broth assay; format: functional
Staphylococcus aureus [44] = experiment: Antibacterial activity against Staphylococcus aureus PGI/DML03149 infected in Swiss albino mouse assessed as log reduction at 3 mg/kg administered twice at 1 hr and 5 hrs post infection relative to control; format: functional

## CCCCCCCCCCCCCC(=O)NC(CCCN)C(=O)NC(CCCN)C(=O)NC(CCCN)C(N)=O (stereo not given)
[1]
  mortality: 85%
[2]
  mortality: 15%
Streptococcus pneumoniae [3]
  MIC: 4.5 mg/L (≈ 7.9 µM)
[4]
  mortality: 0%
Pseudomonas aeruginosa [5]
  MIC: 1.5 mg/L (≈ 2.63 µM)
Escherichia coli [6]
  Activity: Active
[7]
  mortality: 25%
Escherichia coli [8]
  Activity: inactive
Streptococcus pneumoniae [9]
  MIC: 4.2 mg/L (≈ 7.37 µM)
Escherichia coli [10]
  Activity: 54%
[11]
  viability at 18 h, 100 ug/ml: 92%
[12]
  LD50: 81.3 mg/kg
  MTD: 30 mg/kg
  NOAEL: 30 mg/kg
Mus musculus [13]
  LOAEL: 45 mg/kg
  MLD: 45 mg/kg
Escherichia coli [14]
  FC: 4.96
Enterococcus faecium [15]
  MIC: 3.5 mg/L (≈ 6.14 µM)
Enterococcus faecium [16]
  MIC: 3.1 mg/L (≈ 5.44 µM)
Mus musculus [17]
  Time: > 48 h
Escherichia coli [18]
  FC: 3.83
Mus musculus [19]
  Time: > 96 h
Staphylococcus aureus [20]
  FC: 4.59
Escherichia coli [21]
  FC: 5.41
[22]
  Activity: 51%
[23]
  viability at 18 h, 500 ug/ml: 25%
Mus musculus [24]
  Time: > 168 h
Escherichia coli [25]
  Activity: Active
Escherichia coli [26]
  Activity: 79%
[27]
  mortality: 40%
Mus musculus [28]
  Activity: Toxic
Pseudomonas aeruginosa [29]
  MIC: 2.25 mg/L (≈ 3.95 µM)
Enterococcus faecalis
  MIC: 4.5 mg/L (≈ 7.9 µM)
Staphylococcus aureus [30]
  MIC: 2.5 mg/L (≈ 4.39 µM)
Klebsiella pneumoniae [31]
  MIC: 4 mg/L (≈ 7.02 µM)
Escherichia coli [32]
  Activity: 14%
Klebsiella pneumoniae [33]
  MIC: 5.5 mg/L (≈ 9.65 µM)
Haemophilus influenzae
  MIC: 4.5 mg/L (≈ 7.9 µM)
[34]
  mortality: 0%
Acinetobacter baumannii [35]
  MIC: 3.25 mg/L (≈ 5.7 µM)
[36]
  mortality: 0%
Mus musculus [37]
  Time: > 120 h
Mus musculus [38]
  Time: > 120 h
Acinetobacter baumannii [39]
  MIC: 2.5 mg/L (≈ 4.39 µM)
Plasma
  Stability: Stable
Mus musculus [40]
  Activity: Toxic
Escherichia coli [41]
  FC: 1.08
Mus musculus [42]
  Activity: Toxic
[43]
  MIC: 3.1 mg/L (≈ 5.44 µM)
Staphylococcus aureus [44]
  FC: 2.8

— ChEMBL document CHEMBL3352151, “In vitro and in vivo antibacterial evaluation and mechanistic study of ornithine based small cationic lipopeptides against antibiotic resistant clinical isolates” (Eur J Med Chem, 2014)
